ChEMBL document CHEMBL1201862, “PubChem BioAssay data set” (2004)
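Assay format: 96-well plates, 48-hour exposure. Here, GI50 denotes the concentration required for 50% inhibition of growth.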 Activity calls are given as the source filed them. No stated cut-off is given here; in the data, active = GI50 up to about 1.1 µM and inactive = higher.

Key:
Test in all cases: inhibition of tumour cell growth, NCI panel, 48 h
MOLT-4 = system: MOLT-4
Hs-578T = system: Hs-578T
LOX IMVI = system: LOX IMVI
HCC 2998 = system: HCC 2998
SF-539 = system: SF-539
SN12C = system: SN12C
K562 = system: K562
MCF7 = system: MCF7
M14 = system: M14
HOP-92 = system: HOP-92
786-0 = system: 786-0
RXF 393 = system: RXF 393
IGROV-1 = system: IGROV-1
PC-3 = system: PC-3
SK-OV-3 = system: SK-OV-3
COLO 205 = system: COLO 205
NCI-H23 = system: NCI-H23
MDA-MB-435 = system: MDA-MB-435
SW-620 = system: SW-620
BT-549 = system: BT-549

Measured: GI50

CC(C)(C)NC(NC(C)(C)C)=C(/C=C(/Cl)[N+](=O)[O-])[N+](=O)[O-]
inactive: MOLT-4 48.3 µM | Hs-578T 56.9 µM | LOX IMVI > 100 µM | HCC 2998 62.1 µM | SF-539 38.3 µM | SN12C > 100 µM | K562 55.1 µM | MCF7 4.46 µM | M14 27.7 µM | HOP-92 > 100 µM | 786-0 34.7 µM | RXF 393 > 100 µM | IGROV-1 51.8 µM | PC-3 45.6 µM | SK-OV-3 > 100 µM | COLO 205 26.4 µM | NCI-H23 42.7 µM | MDA-MB-435 19.5 µM

O=C1/C(=c2\s/c(=C\c3ccccc3)c(=O)n2-c2ccccc2)SC(=S)N1c1ccccc1
inactive: MOLT-4 45.4 µM | Hs-578T 34.4 µM | LOX IMVI 26.9 µM | HCC 2998 70.5 µM | SF-539 21.5 µM | SN12C 35.6 µM | K562 47.2 µM | MCF7 53.5 µM | SW-620 93.3 µM | M14 > 100 µM | HOP-92 33 µM | 786-0 45.8 µM | RXF 393 34 µM | IGROV-1 25 µM | PC-3 55 µM | SK-OV-3 21.9 µM | COLO 205 63.5 µM | NCI-H23 76.7 µM | MDA-MB-435 49.8 µM

CC(C)(NO)/C(=N\O)c1ccco1
inactive: MOLT-4 20.1 µM | Hs-578T 24 µM | LOX IMVI > 100 µM | HCC 2998 > 100 µM | SF-539 > 100 µM | SN12C > 100 µM | MCF7 > 100 µM | SW-620 > 100 µM | M14 > 100 µM | HOP-92 > 100 µM | 786-0 > 100 µM | RXF 393 > 100 µM | IGROV-1 > 100 µM | PC-3 > 100 µM | SK-OV-3 > 100 µM | COLO 205 > 100 µM | NCI-H23 > 100 µM | MDA-MB-435 > 100 µM

CCOC(=O)N1[C@@H]2CCC[C@@H]2C(=O)[C@@H]2CCC[C@@H]21
inactive: MOLT-4 > 100 µM | Hs-578T > 100 µM | BT-549 > 100 µM | LOX IMVI > 100 µM | HCC 2998 > 100 µM | SN12C > 100 µM | K562 > 100 µM | SW-620 > 100 µM | M14 > 100 µM | HOP-92 > 100 µM | 786-0 > 100 µM | RXF 393 > 100 µM | IGROV-1 > 100 µM | PC-3 > 100 µM | SK-OV-3 > 100 µM | COLO 205 > 100 µM | NCI-H23 > 100 µM | MDA-MB-435 > 100 µM

CCOC(=O)NC(Nc1ncn(C(NC(=O)OCC)(C(F)(F)F)C(F)(F)F)n1)(C(F)(F)F)C(F)(F)F
inactive: MOLT-4 > 100 µM | Hs-578T > 100 µM | LOX IMVI > 100 µM | HCC 2998 29.9 µM | SF-539 > 100 µM | SN12C > 100 µM | K562 > 100 µM | MCF7 > 100 µM | SW-620 > 100 µM | M14 > 100 µM | HOP-92 > 100 µM | 786-0 > 100 µM | RXF 393 > 100 µM | IGROV-1 > 100 µM | PC-3 > 100 µM | SK-OV-3 > 100 µM | COLO 205 > 100 µM | NCI-H23 > 100 µM | MDA-MB-435 > 100 µM

CCOC(=O)C(Cl)(NC(=O)c1ccc(F)cc1)C(F)(F)F (stereo unspecified)
inactive: MOLT-4 > 100 µM | Hs-578T > 100 µM | LOX IMVI > 100 µM | HCC 2998 > 100 µM | SF-539 > 100 µM | SN12C > 100 µM | K562 > 100 µM | MCF7 > 100 µM | SW-620 > 100 µM | M14 > 100 µM | HOP-92 > 100 µM | 786-0 > 100 µM | RXF 393 > 100 µM | IGROV-1 > 100 µM | PC-3 > 100 µM | SK-OV-3 > 100 µM | COLO 205 > 100 µM | NCI-H23 > 100 µM | MDA-MB-435 > 100 µM

COc1cc(C(C[N+](=O)[O-])SC(C)=O)ccc1OCc1ccccc1 (stereo unspecified)
inactive: MOLT-4 2.25 µM | Hs-578T 3.31 µM | LOX IMVI 1.43 µM | HCC 2998 8.45 µM | SF-539 2.48 µM | SN12C 4.17 µM | K562 1.38 µM | MCF7 2.38 µM | SW-620 3.13 µM | M14 4.89 µM | HOP-92 18.9 µM | 786-0 1.79 µM | RXF 393 1.69 µM | IGROV-1 2.88 µM | PC-3 4.47 µM | SK-OV-3 16.1 µM | COLO 205 5.24 µM | NCI-H23 4.79 µM | MDA-MB-435 3.08 µM

COC(=O)C1=C(C(=O)OC)C(C(=O)c2ccccc2)N2N=C(c3ccc(Cl)cc3)C=CC12 (stereo unspecified)
inactive: MOLT-4 5.69 µM | BT-549 2.09 µM | LOX IMVI 18.7 µM | HCC 2998 > 100 µM | SF-539 > 100 µM | SN12C 85.5 µM | K562 30.3 µM | MCF7 75.7 µM | SW-620 > 100 µM | M14 > 100 µM | HOP-92 > 100 µM | 786-0 > 100 µM | RXF 393 4.15 µM | PC-3 9.82 µM | SK-OV-3 > 100 µM | COLO 205 > 100 µM | NCI-H23 26.1 µM | MDA-MB-435 9.44 µM

Cc1cccc(/C=C2\CCCCCC2=O)c1
inactive: MOLT-4 99.8 µM | Hs-578T > 100 µM | BT-549 > 100 µM | LOX IMVI > 100 µM | HCC 2998 > 100 µM | SN12C > 100 µM | K562 > 100 µM | SW-620 > 100 µM | M14 > 100 µM | HOP-92 > 100 µM | 786-0 > 100 µM | IGROV-1 > 100 µM | PC-3 > 100 µM | SK-OV-3 > 100 µM | COLO 205 > 100 µM | NCI-H23 > 100 µM | MDA-MB-435 > 100 µM

Oc1cc(-c2ccc3ccccc3c2)nc2ncccc12
inactive: MOLT-4 4.06 µM | Hs-578T 9.35 µM | BT-549 9.93 µM | LOX IMVI 9.93 µM | HCC 2998 9.4 µM | SF-539 6.95 µM | SN12C 23.6 µM | K562 2.7 µM | MCF7 5.77 µM | SW-620 5.18 µM | M14 7.13 µM | HOP-92 8.34 µM | 786-0 12.1 µM | IGROV-1 6.4 µM | SK-OV-3 19.6 µM | COLO 205 4.05 µM | NCI-H23 10.7 µM

NC(=O)CN1C=CCC(C(N)=O)=C1 [CARICOTAMIDE]
inactive: MOLT-4 > 100 µM | BT-549 > 100 µM | LOX IMVI > 100 µM | HCC 2998 > 100 µM | SF-539 > 100 µM | SN12C > 100 µM | K562 > 100 µM | MCF7 > 100 µM | SW-620 > 100 µM | M14 > 100 µM | HOP-92 > 100 µM | 786-0 > 100 µM | RXF 393 > 100 µM | IGROV-1 > 100 µM | PC-3 > 100 µM | SK-OV-3 > 100 µM | COLO 205 > 100 µM | NCI-H23 > 100 µM | MDA-MB-435 > 100 µM
